According to ChEMBL document CHEMBL5291721, “A preclinical secondary pharmacology resource illuminates target-adverse drug reaction associations of marketed drugs” (Nat Commun, 2023):

Key:
[1] = target: T1, Adenosine receptor A3 (Homo sapiens, UniProt P0DMS8)
T1 sequence (P0DMS8 whole entry): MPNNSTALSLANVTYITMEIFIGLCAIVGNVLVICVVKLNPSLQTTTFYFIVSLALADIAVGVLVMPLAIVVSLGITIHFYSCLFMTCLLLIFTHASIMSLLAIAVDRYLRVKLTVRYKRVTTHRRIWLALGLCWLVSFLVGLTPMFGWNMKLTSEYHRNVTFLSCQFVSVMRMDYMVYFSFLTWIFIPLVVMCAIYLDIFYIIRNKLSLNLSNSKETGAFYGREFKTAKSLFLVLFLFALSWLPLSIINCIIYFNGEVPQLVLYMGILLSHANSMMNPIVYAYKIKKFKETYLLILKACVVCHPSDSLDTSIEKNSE

[2] = target: T2, Alpha-1A adrenergic receptor (Homo sapiens, UniProt P35348); format: functional, cell-based
T2 sequence (P35348 whole entry): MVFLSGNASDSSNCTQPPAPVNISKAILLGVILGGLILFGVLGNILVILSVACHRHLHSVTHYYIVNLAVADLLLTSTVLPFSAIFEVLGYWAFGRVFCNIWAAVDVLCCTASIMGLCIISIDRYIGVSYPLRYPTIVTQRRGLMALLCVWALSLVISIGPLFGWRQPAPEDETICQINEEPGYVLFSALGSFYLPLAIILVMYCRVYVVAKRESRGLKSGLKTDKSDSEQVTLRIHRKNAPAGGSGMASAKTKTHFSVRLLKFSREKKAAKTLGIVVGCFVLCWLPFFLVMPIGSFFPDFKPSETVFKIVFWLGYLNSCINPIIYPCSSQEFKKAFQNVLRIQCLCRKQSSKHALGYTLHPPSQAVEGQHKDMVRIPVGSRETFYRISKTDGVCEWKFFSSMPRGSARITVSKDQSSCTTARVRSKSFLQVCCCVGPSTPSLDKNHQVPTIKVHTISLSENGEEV

[3] = target: Gamma-aminobutyric acid receptor subunit alpha-1 (Rattus norvegicus, UniProt P62813)
Gamma-aminobutyric acid receptor subunit alpha-1, sequence (P62813 whole entry): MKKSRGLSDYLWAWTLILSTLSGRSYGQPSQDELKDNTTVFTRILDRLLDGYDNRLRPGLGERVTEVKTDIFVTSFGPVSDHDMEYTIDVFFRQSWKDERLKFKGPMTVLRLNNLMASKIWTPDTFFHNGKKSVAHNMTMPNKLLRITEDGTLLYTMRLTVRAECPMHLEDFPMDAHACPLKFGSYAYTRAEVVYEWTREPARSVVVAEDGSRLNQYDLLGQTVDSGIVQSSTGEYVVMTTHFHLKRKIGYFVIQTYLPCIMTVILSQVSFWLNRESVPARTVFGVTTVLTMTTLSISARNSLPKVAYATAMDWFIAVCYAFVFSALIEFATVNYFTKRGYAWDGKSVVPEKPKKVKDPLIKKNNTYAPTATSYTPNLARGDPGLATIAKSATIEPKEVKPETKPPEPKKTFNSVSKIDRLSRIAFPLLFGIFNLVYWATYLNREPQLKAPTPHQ

[4] = target: Vascular endothelial growth factor receptor 2 (Homo sapiens, UniProt P35968); format: functional
Vascular endothelial growth factor receptor 2, sequence (P35968 whole entry): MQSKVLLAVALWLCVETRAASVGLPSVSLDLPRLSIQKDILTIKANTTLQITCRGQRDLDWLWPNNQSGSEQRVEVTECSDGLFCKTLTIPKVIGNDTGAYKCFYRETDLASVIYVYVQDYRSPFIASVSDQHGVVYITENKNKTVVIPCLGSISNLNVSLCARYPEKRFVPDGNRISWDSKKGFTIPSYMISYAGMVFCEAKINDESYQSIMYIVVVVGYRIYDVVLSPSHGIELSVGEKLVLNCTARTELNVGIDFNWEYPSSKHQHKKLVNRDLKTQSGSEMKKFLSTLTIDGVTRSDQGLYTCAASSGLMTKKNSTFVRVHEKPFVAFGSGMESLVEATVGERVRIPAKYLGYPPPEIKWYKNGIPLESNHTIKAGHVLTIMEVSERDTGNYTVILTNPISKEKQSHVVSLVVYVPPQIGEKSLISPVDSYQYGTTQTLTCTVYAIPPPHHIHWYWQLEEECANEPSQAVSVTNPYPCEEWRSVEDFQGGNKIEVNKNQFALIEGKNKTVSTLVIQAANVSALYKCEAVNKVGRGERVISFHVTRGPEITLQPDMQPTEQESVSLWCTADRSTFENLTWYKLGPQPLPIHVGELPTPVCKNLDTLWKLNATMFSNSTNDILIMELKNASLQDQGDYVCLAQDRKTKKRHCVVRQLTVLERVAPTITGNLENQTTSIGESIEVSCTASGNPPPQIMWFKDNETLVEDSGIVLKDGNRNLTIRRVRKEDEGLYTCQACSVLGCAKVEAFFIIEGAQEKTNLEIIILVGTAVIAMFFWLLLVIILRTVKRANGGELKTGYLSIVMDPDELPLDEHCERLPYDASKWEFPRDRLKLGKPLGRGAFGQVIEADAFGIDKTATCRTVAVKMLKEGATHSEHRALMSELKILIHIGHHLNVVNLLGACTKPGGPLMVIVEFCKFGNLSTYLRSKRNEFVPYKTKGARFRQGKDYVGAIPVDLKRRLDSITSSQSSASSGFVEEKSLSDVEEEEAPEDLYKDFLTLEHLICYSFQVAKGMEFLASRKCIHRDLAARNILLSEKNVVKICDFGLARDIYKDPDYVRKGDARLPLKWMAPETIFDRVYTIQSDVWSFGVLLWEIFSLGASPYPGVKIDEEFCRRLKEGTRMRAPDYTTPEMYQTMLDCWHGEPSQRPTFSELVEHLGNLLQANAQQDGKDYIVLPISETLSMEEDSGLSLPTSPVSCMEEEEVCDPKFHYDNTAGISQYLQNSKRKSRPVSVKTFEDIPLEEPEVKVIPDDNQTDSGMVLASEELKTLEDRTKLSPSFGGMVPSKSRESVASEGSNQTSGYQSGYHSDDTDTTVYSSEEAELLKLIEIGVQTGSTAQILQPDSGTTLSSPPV

[5] = target: T1, Adenosine receptor A3; remark: listed apart in the source
[6] = target: T2, Alpha-1A adrenergic receptor; format: functional, cell-based; remark: listed apart in the source
[7] = target: T3, Muscarinic acetylcholine receptor M2 (Homo sapiens, UniProt P08172); format: functional, cell-based
T3 sequence (P08172 whole entry): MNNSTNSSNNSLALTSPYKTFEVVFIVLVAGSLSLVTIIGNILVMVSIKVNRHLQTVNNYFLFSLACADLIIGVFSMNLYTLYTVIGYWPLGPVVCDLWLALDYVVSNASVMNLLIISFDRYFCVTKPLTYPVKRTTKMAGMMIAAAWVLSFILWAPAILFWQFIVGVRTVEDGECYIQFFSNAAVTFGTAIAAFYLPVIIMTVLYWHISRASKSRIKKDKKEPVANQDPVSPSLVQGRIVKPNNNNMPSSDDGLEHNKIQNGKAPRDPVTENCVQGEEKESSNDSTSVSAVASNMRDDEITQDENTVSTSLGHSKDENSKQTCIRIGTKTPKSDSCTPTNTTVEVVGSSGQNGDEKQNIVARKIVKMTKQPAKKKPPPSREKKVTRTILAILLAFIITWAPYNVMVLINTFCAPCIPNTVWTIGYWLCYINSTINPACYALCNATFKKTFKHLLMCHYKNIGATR

[8] = target: Beta-1 adrenergic receptor (Homo sapiens, UniProt P08588); format: functional
Beta-1 adrenergic receptor, sequence (P08588 whole entry): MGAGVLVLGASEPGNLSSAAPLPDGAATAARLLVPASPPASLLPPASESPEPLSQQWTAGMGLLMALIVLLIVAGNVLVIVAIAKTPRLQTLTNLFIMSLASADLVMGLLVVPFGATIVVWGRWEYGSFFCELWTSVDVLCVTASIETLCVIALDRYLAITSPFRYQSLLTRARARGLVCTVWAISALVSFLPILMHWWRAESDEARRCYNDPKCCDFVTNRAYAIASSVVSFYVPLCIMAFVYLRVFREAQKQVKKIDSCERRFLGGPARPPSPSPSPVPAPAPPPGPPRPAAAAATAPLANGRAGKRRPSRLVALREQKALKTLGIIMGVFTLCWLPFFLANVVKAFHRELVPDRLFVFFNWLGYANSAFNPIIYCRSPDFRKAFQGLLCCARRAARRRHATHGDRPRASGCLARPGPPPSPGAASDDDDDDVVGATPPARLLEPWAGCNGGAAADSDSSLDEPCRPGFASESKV

[9] = target: Vasopressin V1a receptor (Homo sapiens, UniProt P37288)
Vasopressin V1a receptor, sequence (P37288 whole entry): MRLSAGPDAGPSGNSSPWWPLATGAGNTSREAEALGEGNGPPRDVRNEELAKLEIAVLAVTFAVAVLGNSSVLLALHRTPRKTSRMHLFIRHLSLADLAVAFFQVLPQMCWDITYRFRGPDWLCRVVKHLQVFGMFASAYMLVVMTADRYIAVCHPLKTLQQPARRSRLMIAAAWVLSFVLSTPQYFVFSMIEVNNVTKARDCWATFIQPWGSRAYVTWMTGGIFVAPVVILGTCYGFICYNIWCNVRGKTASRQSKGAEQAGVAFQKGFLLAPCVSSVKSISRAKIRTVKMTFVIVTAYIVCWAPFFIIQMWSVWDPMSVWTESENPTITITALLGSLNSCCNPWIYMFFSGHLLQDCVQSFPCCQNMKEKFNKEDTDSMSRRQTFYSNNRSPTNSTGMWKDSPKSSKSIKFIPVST

[10] = target: T4, Neuropeptide Y receptor type 1 (Homo sapiens, UniProt P25929)
T4 sequence (P25929 whole entry): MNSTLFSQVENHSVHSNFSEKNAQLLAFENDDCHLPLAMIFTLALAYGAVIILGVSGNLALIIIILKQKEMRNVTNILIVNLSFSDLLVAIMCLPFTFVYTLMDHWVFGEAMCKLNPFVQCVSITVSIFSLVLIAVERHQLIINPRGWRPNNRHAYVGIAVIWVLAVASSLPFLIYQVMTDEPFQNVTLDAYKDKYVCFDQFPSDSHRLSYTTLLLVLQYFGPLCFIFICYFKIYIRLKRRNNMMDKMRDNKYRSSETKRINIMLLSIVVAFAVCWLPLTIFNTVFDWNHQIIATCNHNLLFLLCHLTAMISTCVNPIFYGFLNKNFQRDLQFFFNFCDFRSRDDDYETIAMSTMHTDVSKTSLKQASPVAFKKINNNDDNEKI

[11] = target: T5, Progesterone receptor (Homo sapiens, UniProt P06401); format: functional
T5 sequence (P06401 whole entry): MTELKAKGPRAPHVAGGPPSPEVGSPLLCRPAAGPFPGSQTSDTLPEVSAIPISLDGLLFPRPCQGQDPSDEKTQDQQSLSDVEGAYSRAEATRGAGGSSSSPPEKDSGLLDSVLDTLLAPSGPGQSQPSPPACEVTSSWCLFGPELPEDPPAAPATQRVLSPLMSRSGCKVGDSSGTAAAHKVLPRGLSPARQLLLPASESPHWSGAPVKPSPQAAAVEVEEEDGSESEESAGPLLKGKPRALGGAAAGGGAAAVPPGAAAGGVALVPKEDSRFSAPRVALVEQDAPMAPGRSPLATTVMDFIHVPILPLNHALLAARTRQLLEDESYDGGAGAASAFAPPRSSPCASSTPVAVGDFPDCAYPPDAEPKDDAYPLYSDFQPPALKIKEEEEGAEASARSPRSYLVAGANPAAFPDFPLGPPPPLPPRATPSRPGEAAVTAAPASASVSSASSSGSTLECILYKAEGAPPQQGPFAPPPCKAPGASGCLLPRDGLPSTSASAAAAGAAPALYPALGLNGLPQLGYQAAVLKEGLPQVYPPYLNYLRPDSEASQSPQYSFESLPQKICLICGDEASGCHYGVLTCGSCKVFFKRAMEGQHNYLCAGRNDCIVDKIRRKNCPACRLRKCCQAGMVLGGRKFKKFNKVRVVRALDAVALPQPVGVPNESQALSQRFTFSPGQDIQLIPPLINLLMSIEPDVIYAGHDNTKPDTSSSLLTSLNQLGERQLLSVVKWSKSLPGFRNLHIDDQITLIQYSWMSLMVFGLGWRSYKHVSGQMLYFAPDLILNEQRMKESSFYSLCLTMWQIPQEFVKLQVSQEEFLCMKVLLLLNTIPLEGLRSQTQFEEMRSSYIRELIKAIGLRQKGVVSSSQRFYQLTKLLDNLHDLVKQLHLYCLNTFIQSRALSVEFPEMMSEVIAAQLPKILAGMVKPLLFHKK
Also: assay procedure not described here.

Structure (SMILES) | AC50 [1] | AC50 [2] | AC50 [3] | AC50 [4] | AC50 [5] | AC50 [6] | AC50 [7] | AC50 [8] | AC50 [9] | AC50 [10] | AC50 [11]
CN1CCC[C@@H]1Cc1c[nH]c2ccc(CCS(=O)(=O)c3ccccc3)cc12 | > 30 µM | > 30 µM | > 30 µM |  |  |  |  |  |  |  | 
COc1nccnc1NS(=O)(=O)c1ccc(N)cc1 | > 30 µM | > 30 µM | > 30 µM | > 30 µM |  |  |  |  |  |  | 
O=C(Nc1cccc2c(=O)cc(-c3nnn[nH]3)oc12)c1ccc(OCCCCc2ccccc2)cc1 |  | > 30 µM | > 30 µM |  |  |  |  |  |  |  | 
NC(=O)c1nc(F)c[nH]c1=O | > 30 µM | > 30 µM | > 30 µM | > 30 µM |  |  |  |  |  |  | 
Cc1ccc([C@@H]2O[C@H](CO)[C@@H](O)[C@H](O)[C@H]2O)cc1Cc1ccc(-c2ccc(F)cc2)s1 [CANAGLIFLOZIN ANHYDROUS] | 18.4 µM | > 30 µM | > 30 µM | > 30 µM |  |  |  |  |  |  | 
CN(C)CCN(Cc1ccc(Cl)cc1)c1ccccn1 [CHLOROPYRAMINE] | > 30 µM | 6.52 µM | > 30 µM | > 30 µM |  |  |  |  |  |  | 
O=C(O)c1cc(=O)c2ccccc2o1 [CHROMOCARB] | > 30 µM | > 30 µM | > 30 µM | > 30 µM |  |  |  |  |  |  | 
N[C@@H](CSSC[C@H](N)C(=O)O)C(=O)O [CYSTINE] | > 30 µM | > 30 µM | > 30 µM |  |  |  |  |  |  |  | 
Cn1c(=O)c2c(ncn2CC(O)CO)n(C)c1=O (stereo not given) [DYPHYLLINE] | > 30 µM | > 30 µM |  | > 30 µM | > 30 µM |  |  |  |  |  | 
C[C@]12CC[C@@H]3c4ccc(O)cc4CC[C@H]3[C@@H]1CC[C@@H]2OC(=O)CCC1CCCC1 [ESTRADIOL CYPIONATE] | 9.98 µM | > 30 µM | > 30 µM | > 30 µM |  |  |  |  |  |  | 
CCC(=O)O[C@@H](O[P@](=O)(CCCCc1ccccc1)CC(=O)N1C[C@H](C2CCCCC2)C[C@H]1C(=O)O)C(C)C [FOSINOPRIL] |  |  | > 30 µM |  |  | > 30 µM | > 30 µM |  |  |  | 
CC(C)(N)C(=O)N[C@H](Cc1c[nH]c2ccccc12)C(=O)N[C@H](Cc1c[nH]c2ccccc12)NC=O [MACIMORELIN] |  | > 30 µM | > 30 µM |  |  |  |  |  |  |  | 
CC(=O)/N=c1/sc(S(N)(=O)=O)nn1C [METHAZOLAMIDE] | > 30 µM | > 30 µM |  | > 30 µM | > 10 µM |  | > 10 µM | > 10 µM | > 10 µM | > 10 µM | > 10 µM
CN(C)c1cc(CNCC(C)(C)C)c(O)c2c1C[C@H]1C[C@H]3[C@H](N(C)C)C(O)=C(C(N)=O)C(=O)[C@@]3(O)C(O)=C1C2=O [OMADACYCLINE] |  |  | > 30 µM |  | 25 µM | > 30 µM | > 30 µM | > 30 µM | > 30 µM | > 30 µM | > 30 µM
CCCCCCCCCCC[C@@H](C[C@@H]1OC(=O)[C@H]1CCCCCC)OC(=O)[C@H](CC(C)C)NC=O [ORLISTAT] | > 30 µM | > 30 µM |  | > 30 µM |  |  |  |  |  |  | 
O=C1[C@H]2CCCC[C@H]2C(=O)N1CCCCN1CCN(c2nsc3ccccc23)CC1 [PEROSPIRONE] | > 30 µM | 0.003 µM |  | > 30 µM |  |  |  |  |  |  | 
CN(C)CCC(c1ccccc1)c1ccccn1 (stereo not given) [PHENIRAMINE] | > 30 µM | > 30 µM |  | > 30 µM |  |  |  |  |  |  | 
CNC[C@H](O)c1cccc(O)c1 [PHENYLEPHRINE] | > 30 µM |  | > 30 µM | > 30 µM | > 30 µM |  | > 10 µM |  | > 10 µM | > 30 µM | 
CC(C)(C)C(=O)NCCCC(=O)O [PIVAGABINE] | > 30 µM | > 30 µM |  | > 30 µM |  |  |  |  |  |  | 
CC(C)[N+](C)(CCOC(=O)C1c2ccccc2Oc2ccccc21)C(C)C [PROPANTHELINE] | > 30 µM | > 30 µM |  | > 30 µM |  |  |  |  |  |  | 
CNC(=O)c1cc(Oc2ccc(NC(=O)Nc3ccc(Cl)c(C(F)(F)F)c3)c(F)c2)ccn1 [REGORAFENIB] |  |  | > 30 µM |  | 2.51 µM | > 30 µM | > 30 µM | > 30 µM |  |  | > 30 µM
CN(C)C(=O)c1nc(CNC(=O)CN)n(-c2ccc(Cl)cc2C(=O)c2ccccc2Cl)n1 [RILMAZAFONE] | > 30 µM | > 30 µM |  | > 30 µM |  |  |  |  |  |  | 
NC(=O)NS(=O)(=O)c1ccc(N)cc1 [SULFACARBAMIDE] | > 30 µM | > 30 µM |  | > 30 µM |  |  |  |  |  |  | 
CCCCNc1ccc(C(=O)OCCN(C)C)cc1 [TETRACAINE] |  | > 30 µM | > 30 µM |  | > 30 µM | > 30 µM | > 10 µM | > 10 µM | > 10 µM | > 30 µM | 
Cn1c(=O)c2[nH]cnc2n(C)c1=O [THEOPHYLLINE] |  | > 10 µM | > 30 µM |  |  | > 30 µM | > 10 µM | > 10 µM | > 30 µM | > 30 µM | 
CN1CCN(CCCN2c3ccccc3Sc3ccc(S(=O)(=O)N(C)C)cc32)CC1 [THIOPROPERAZINE] |  |  | > 30 µM |  |  | > 30 µM | > 30 µM |  |  |  | 
CC1(C)O[C@@H]2[C@@H](CO[C@@]3(COS(N)(=O)=O)OC(C)(C)O[C@@H]23)O1 [TOPIRAMATE] |  | > 30 µM | > 30 µM |  | > 30 µM |  | > 10 µM | > 10 µM | > 10 µM | > 30 µM | 
CCCCCCCCCCCCCCCC(=O)OC/C=C(C)/C=C/C=C(C)/C=C/C1=C(C)CCCC1(C)C [VITAMIN A PALMITATE] | 11.6 µM | > 30 µM |  | > 30 µM |  |  |  |  |  |  | 
